# Assay results reported in publication PMC4601051, “Discovery of Indoline-2-carboxamide Derivatives as a New Class of Brain-Penetrant Inhibitors of Trypanosoma brucei” (Journal of Medicinal Chemistry, 2015).
# Where two headings read alike, the source gives them in different places.
# Experiments:
# [1] = test system: bloodstream form T. brucei brucei; test: T. b. brucei whole cell parasite (trypanosome growth) assay; assay type: cell-based, Trypanosoma brucei brucei; settings: for loss in potency: T. b. brucei EC50, compared to 1 (parent); for EC50: 69 h + 4 h resazurin
# Protocol: This was conducted as previously described.[27] Cell culture plates were stamped with 1 μL of an appropriate stock concentration of test compound, followed by addition of 200 μL of trypanosome culture (HMI9-T, 10% FCS) to each well at a density of 2000 cells per well (except column 12 receiving media only). […] Potency was carried out using 10-point dose–response curves.
# [2] = Microsomal intrinsic clearance (Clint), mouse; assay type: in vitro ADME; settings: mouse liver microsomes, 0.5 μM compound
# Protocol: (§1) Each test compound (0.5 μM) was incubated with pooled female CDI mouse liver microsomes, pooled male Sprague–Dawley rat microsomes, or pooled mixed gender human liver microsomes (Tebu-Bio, UK; 0.5 mg/mL 50 mM potassium phosphate buffer, pH 7.4) and the reaction started with addition of excess NADPH (8 mg/mL, 50 mM potassium phosphate buffer, pH 7.4). Immediately, at time zero, then at 3, 6, 9, 15, and 30 min, an aliquot (50 μL) of the incubation mixture was removed and mixed with acetonitrile (100 μL) to stop the reaction. Internal standard was added to all samples, and the samples were centrifuged at 1825g for 10 min to sediment precipitated protein. The plates were then sealed prior to UPLC/MS/MS analysis using a Quattro Premier XE (Waters Corporation, USA).
# (§2) XLfit (IDBS, UK) was used to calculate the exponential decay and consequently the rate constant (k) from the ratio of peak area of test compound to internal standard at each time point.
# [3] = in vitro; settings: human
# Protocol: Proliferation assays using bloodstream form T. brucei brucei and human MRC-5 fibroblasts were conducted using a modification of the cell viability assay as previously reported.[27],[39]
# MRC-5 cells (2000 cells per well) were seeded in 200 μL of DMEM, 10% FCS, and allowed to adhere overnight. One microliter of test compound was added to each well on the day of assay initiation.
# The final DMSO level was 0.5% in all cases.
# [4] = Microsomal intrinsic clearance (Clint), rat; assay type: in vitro ADME; settings: rat liver microsomes, 0.5 μM compound
# Protocol: as §1, §2
# [5] = Microsomal intrinsic clearance (Clint), human; assay type: in vitro ADME; settings: human liver microsomes, 0.5 μM compound
# Protocol: as §1, §2
# [6] = Trypanosoma brucei, mean of two or more determinations, read-out: T. b. brucei EC50
# [7] = mean of two or more determinations, read-out: T. b. brucei EC50
Compound,"EC50 [1, 6] [nM]",mouse microsomal intrinsic clearance [2] [mL min^–1 g^–1],EC50 at 69 h ([3]; MRC-5 fibroblasts) [nM],also measured
CCCCNC(=O)C1Cc2ccccc2N1C(=O)COc1ccc(Cl)cc1 (centres unmarked) [Compound 50],19000,27,> 50000,loss in potency [1]: ~700 fold
CNC(=O)[C@H]1Cc2ccccc2N1C(=O)Cc1ccc(Cl)c(F)c1 [Compound 45],80,8.4,> 50000,–
CNC(=O)C1Cc2ccccc2N1C(=O)Cc1ccccc1 (centres unmarked) [Compound 21],220,–,> 15000,–
CNC(=O)C1Cc2ccccc2N1C(=O)Cc1ccc(C(C)C)cc1 (centres unmarked) [Compound 41],770,35,> 50000,–
CNC(=O)C1Cc2ccccc2N1C(=O)COc1ccc2ccccc2c1 (centres unmarked) [Compound 18],2900,–,> 50000,–
CN(C)C(=O)C1Cc2ccccc2N1C(=O)COc1ccc(Cl)cc1 (centres unmarked) [Compound 48],5400,–,> 50000,loss in potency [1]: 200 fold
CNC(=O)C1Cc2ccccc2N1C(=O)Cc1ccc(C(F)(F)F)cc1 (centres unmarked) [Compound 42],100,3.0,> 50000,"EC50 [1, 7]: 110 nM"
CC(C)Oc1ccc(C(=O)N2c3ccccc3CC2C(N)=O)cc1 (centres unmarked) [Compound 25],> 50000,–,> 50000,–
CNC(=O)C1Cc2ccccc2N1C(=O)Cc1ccc(F)cc1 (centres unmarked) [Compound 43],100,0.8,> 50000,"EC50 [1, 7]: 110 nM"
CNC(=O)C1Cc2ccccc2N1C(=O)Cc1cccs1 (centres unmarked) [Compound 20],660,–,> 50000,–
Cc1cccc(OCC(=O)N2c3ccccc3CC2C(N)=O)c1 (centres unmarked) [Compound 24],13000,–,> 50000,–
CNC(=O)C1Cc2ccccc2N1C(=O)COc1ccc(C)cc1 (centres unmarked) [Compound 34],30,6.5,> 50000,"microsomal intrinsic clearance, rat [4]: 47 mL min^–1 g^–1; microsomal intrinsic clearance, human [5]: 2.4 mL min^–1 g^–1"
CNC(=O)C1Cc2ccccc2N1C(=O)Cc1cccc2ccccc12 (centres unmarked) [Compound 39],–,28,–,"T. b. brucei potency in words [1]: complete loss of potency; EC50 ([1]; Trypanosoma brucei, read-out: T. b. brucei EC50, mean of two or more determinations): 50000 nM; EC50 at 69 h [3]: > 50000 nM"
CNC(=O)C1Cc2ccccc2N1C(=O)COc1ccc(Cl)c(Cl)c1 (centres unmarked) [Compound 30],400,9.1,> 50000,loss in potency [1]: 15 fold
CNC(=O)C1Cc2cc(Br)ccc2N1C(=O)COc1ccc(F)cc1 (centres unmarked) [Compound 60],80,4.6,> 50000,–
CCOc1ccc(OCC(=O)N2c3ccccc3CC2C(=O)NC)cc1 (centres unmarked) [Compound 17],310,–,> 50000,–
CNC(=O)C1Cc2ccccc2N1C(=O)Cc1ccc(F)c(F)c1 (centres unmarked) [Compound 46],110,1.9,> 50000,–
CNC(=O)C1Cc2c(cc(F)c(F)c2F)N1C(=O)COc1ccc(Cl)cc1 (centres unmarked) [Compound 59],70,3.7,> 50000,"microsomal intrinsic clearance, rat [4]: 6.7 mL min^–1 g^–1; microsomal intrinsic clearance, human [5]: 4.3 mL min^–1 g^–1"
CNC(=O)C1Cc2cc(-c3ccccc3)ccc2N1C(=O)COc1ccc(F)cc1 (centres unmarked) [Compound 61],240,–,> 50000,"loss in potency [1]: ~10 fold; microsomal intrinsic clearance, rat [4]: 25 mL min^–1 g^–1"
CNC(=O)[C@H]1Cc2ccccc2N1C(=O)COc1ccc(F)c(F)c1 [Compound 37],30,3.2,> 50000,–

Compound,"EC50 [1, 6] [nM]",mouse microsomal intrinsic clearance [2] [mL min^–1 g^–1],EC50 at 69 h ([3]; MRC-5 fibroblasts) [nM],also measured
CNC(=O)C1Cc2ccccc2N1C(=O)COc1ccc(Cl)c(F)c1 (centres unmarked) [Compound 29],30,4.4,> 50000,"microsomal intrinsic clearance, rat [4]: 13.5 mL min^–1 g^–1; microsomal intrinsic clearance, human [5]: 3.3 mL min^–1 g^–1"
CNC(=O)C1Cc2ccccc2N1C(=O)COCc1ccccc1 (centres unmarked) [Compound 28],1900,–,> 50000,loss in potency [1]: ~70 fold
CNC(=O)C1Cc2ccccc2N1C(=O)Cc1ccc(F)cc1F (centres unmarked) [Compound 44],2300,0.5,> 50000,–
CNC(=O)C1Cc2cc(F)ccc2N1C(=O)COc1ccc(Cl)cc1 (centres unmarked) [Compound 54],60,2.8,> 50000,"microsomal intrinsic clearance, rat [4]: 5.3 mL min^–1 g^–1; microsomal intrinsic clearance, human [5]: 1.6 mL min^–1 g^–1"
CNC(=O)C1Cc2ccccc2CN1C(=O)COc1ccc(F)cc1 (centres unmarked) [Compound 66],37000,–,> 50000,–
O=C(NC1CC1)C1Cc2ccccc2N1C(=O)COc1ccc(Cl)cc1 (centres unmarked) [Compound 51],410,5.5,> 50000,loss in potency [1]: ~14 fold
CNC(=O)C1Cc2ccccc2N1C(=O)COc1cccc(OC)c1 (centres unmarked) [Compound 19],450,–,> 50000,–
CNC(=O)C1Cc2cc(F)cc(F)c2N1C(=O)COc1ccc(F)cc1 (centres unmarked) [Compound 58],80,2.9,> 50000,–
CCNC(=O)C1Cc2ccccc2N1C(=O)CCC1CCCC1 (centres unmarked) [Compound 23],990,–,> 50000,–
CNC(=O)C1N(C(=O)COc2ccc(Cl)cc2)c2ccccc2C1(C)C (centres unmarked) [Compound 63],920,14,> 50000,loss in potency [1]: ~34 fold
CNC(=O)C1Cc2ccccc2N1C(=O)Cc1ccc(Cl)cc1 (centres unmarked) [Compound 40],80,4.4,> 50000,"improvement in activity ([1]; T. b. brucei EC50, compared to 21): approximately 3 fold"
CCNC(=O)C1Cc2ccccc2N1C(=O)COc1cccc(C)c1 (centres unmarked) [Compound 22],650,–,> 50000,–
[2H]c1c([2H])c([2H])c(OCC(=O)N2c3ccccc3C[C@@H]2C(=O)NC)c([2H])c1[2H] [Compound 38],50,–,> 50000,–
CNC(=O)[C@H]1Cc2ccccc2N1C(=O)COc1ccc(F)cc1 [Compound 36],40,1.2,> 50000,"microsomal intrinsic clearance, rat [4]: 4.9 mL min^–1 g^–1; microsomal intrinsic clearance, human [5]: 1.3 mL min^–1 g^–1"
CNC(=O)C1Cc2cc(-c3ccncc3)ccc2N1C(=O)COc1ccc(F)cc1 (centres unmarked) [Compound 62],440,–,> 50000,loss in potency [1]: ~10 fold
CNC(=O)[C@H]1Cc2cc(F)ccc2N1C(=O)COc1ccc(F)cc1 [Compound 56],40,–,> 50000,–
CNC(=O)C1Cc2ccccc2N1C(=O)COc1ccccc1 (centres unmarked) [Compound 31],40,6.9,> 50000,"microsomal intrinsic clearance, rat [4]: 9.0 mL min^–1 g^–1; microsomal intrinsic clearance, human [5]: 1.4 mL min^–1 g^–1"
CCNC(=O)C1Cc2ccccc2N1C(=O)COc1ccc(Cl)cc1 (centres unmarked) [Compound 49],90,6.2,> 50000,–
CNC(=O)C1Cc2cc(F)c(F)cc2N1C(=O)COc1ccc(F)cc1 (centres unmarked) [Compound 57],90,2.0,> 50000,"microsomal intrinsic clearance, rat [4]: 2.8 mL min^–1 g^–1; microsomal intrinsic clearance, human [5]: 1.9 mL min^–1 g^–1"
